Measured values taken from paper PMC3368272, “The host-seeking inhibitory peptide, Aea-HP-1, is made in the male accessory gland and transferred to the female during copulation” (Peptides, 2012).
Square brackets hold non-standard residues; d marks the D form. Peptide text beside a SMILES is read from it. Hyp = O=C(O)[C@@H]1C[C@@H](O)CN1; pGlu = O=C1CC[C@@H](C(=O)O)N1

How the values were obtained:
[1] = tested on: A. aegypti SPR; test: Ligand-mediated receptor activation, CHO-K1 cells expressing aequorin; assay type: cell-based, Aedes aegypti; conditions: A. aegypti SPR in CHO cells with aequorin and Gαqi; up to 10 μM; n = 4
Procedure: (§1) Ligand-mediated receptor activation was measured using an established expression system employing CHO-K1 cells expressing the Ca^2+ reporter aequorin [42]. The construction of the expression constructs for D. melanogaster sex peptide receptor (SPR) and A. aegypti SPR and the measurement of the luminescent signals have been reported previously.
(§2) Fig. 6 Aea-HP-1 is not an active agonist for SPRs from D. melanogaster (A) and A. aegypti (B). Luminescent responses of CHO cells expressing SPR, aequorin and a chimaeric G-protein, Gαqi, and treated with varying concentrations of Aea-HP-1 and SP. Each data point is mean ± s.d. (n = 4).

[2] = target: T1, D. melanogaster sex peptide receptor (SPR) (Drosophila melanogaster, UniProt Q8SWR3); test: as above; assay type: cell-based; conditions: D. melanogaster SPR in CHO cells with aequorin and Gαqi; up to 10 μM; n = 4
T1 construct: expressed in transfected cells; host or cells: CHO-K1 cells co-expressing aequorin and chimaeric G-protein Gαqi
T1 sequence (Q8SWR3 1-435): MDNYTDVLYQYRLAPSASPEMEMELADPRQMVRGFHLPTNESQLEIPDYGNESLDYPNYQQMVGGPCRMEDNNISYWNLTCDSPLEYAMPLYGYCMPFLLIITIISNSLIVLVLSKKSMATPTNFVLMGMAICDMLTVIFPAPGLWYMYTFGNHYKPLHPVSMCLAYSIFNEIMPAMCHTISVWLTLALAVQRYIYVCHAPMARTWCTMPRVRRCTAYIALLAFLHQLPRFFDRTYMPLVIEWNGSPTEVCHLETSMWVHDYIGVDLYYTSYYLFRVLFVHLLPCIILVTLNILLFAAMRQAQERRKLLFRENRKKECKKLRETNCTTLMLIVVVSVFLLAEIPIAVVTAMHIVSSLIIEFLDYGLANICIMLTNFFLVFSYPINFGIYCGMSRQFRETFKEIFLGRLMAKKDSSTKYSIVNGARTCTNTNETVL
Procedure: as §1, §2

[3] = design: species or system Aedes aegypti; conditions: in vivo
Procedure: Tissues were dissected from adult mosquitoes in phosphate buffered saline (PBS, MP Biomedicals, Cambridge, UK) and collected into acidified methanol (86%, v/v, aqueous methanol and 5% v/v glacial acetic acid). MAGs and male seminal vesicles (SVs) (5 pairs per 100 μl) were typically prepared for analysis by infusing whole tissues in acidified methanol for 30 min, then centrifuging for 10 min at 13,000 rpm in a bench-top microcentrifuge, retaining the supernatant. Homogenization was avoided to provide a cleaner sample for analysis. […]
Mosquito tissues were analyzed for Aea-HP-1 by subjecting either acidified methanol extracts or intact tissues to MALDI/TOF-MS analysis. […]
MALDI/TOF-MS was used to analyze methanol extracts for the presence of Aea-HP-1 in the reproductive tract (uterus, spermathecae, bursa copulatrix, oviduct, but not the ovary) of individual virgin and post-mated females obtained by introducing a single female into a cage of 50 males until mating was observed (<5 min). […] In contrast, the molecular ions for Aea-HP-1 (m/z, 1227.9) and Aea-HP-3 (m/z, 1211.9) were detected in methanol extracts of tissues from nine out of thirteen post-copulated females. Extracts were also analyzed quantitatively by ELISA using synthetic Aea-HP-1 as a standard and the results were compared to the amount of material found in extracts of MAGs dissected from virgin males. […]

[4] = mosquito hemolymph, after 30 min; cited from earlier work
Source text: (§3) Aea-HP-1 has been tested for myogenic and behavior modifying activity in A. aegypti.

[5] = tested on: isolated oviduct and hindgut of female mosquitoes; conditions: female A. aegypti tissues; cited from earlier work
Source text: as §3

[6] = tested on: non-öogenic females; conditions: cited from earlier work
Source text: as §3

[7] = tested on: virgin A. aegypti females; test: Mating rejection after injection into the hemocoel of virgin females; assay type: in vivo, Aedes aegypti; conditions: 0.1–1 μg injected into the hemocoel of virgin A. aegypti females; data not presented
Source text: Transplantation of MAGs, or injection of gland extracts, into female A. aegypti can elicit a variety of post-mating responses including refractoriness to re-mating and inhibition of host-seeking and biting behavior [13]. […] This failure might be due to lack of accessibility and the known rapid catabolism of Aea-HP-1 in the hemolymph. D. melanogaster SP has wide-ranging effects on physiology and behavior some of which are mediated primarily through activation of the SP/MIP receptor that is expressed in sensory neurons of the uterus. The D. melanogaster SP receptor and its A. aegypti orthologue are also strongly activated by myoinhibitory peptides (MIPs), a family of peptides that are found in species from different insect orders and are considered to be the ancestral ligands for these receptors [[19,33,41]]. The receptors are also activated by unidentified ligands present in whole body extract of adult A. aegypti. Although Aea-HP-1 has no obvious structural similarity to either SP or MIP, the promiscuity of the SP/MIP receptor led us to consider the possibility that the head peptide might also be an agonist of the MIP receptor.

[8] = tested on: virgin D. melanogaster females; test: Post-mating response (receptivity) after injection into virgin females; assay type: in vivo, Drosophila melanogaster; conditions: injected into the hemocoel of virgin D. melanogaster females; receptivity assayed 5 h after injection with naive Canton-S males
Procedure: Injections of either Aea-HP-1 or SP into the abdomen of virgin D. melanogaster females were performed as described previously. After injection, females were transferred to individual food vials and were tested after 5 h for receptivity with a naive Canton S male.
Receptivity of virgin females assayed 5 h after injection with either synthetic peptides (Aea-HP-1 or SP) or Ringer's solution alone. Wild type W1118 females were injected and assayed with naïve Canton-S males. Numbers in parenthesis indicate numbers of animal assayed. n.s., p > 0.05; ***p < 0.0001, one-way ANOVA (Tukey post-test) compared with Ringer treatment.

## CC(C)C[C@H](NC(=O)[C@H](CO)NC(=O)[C@@H]1C[C@@H](O)CN1C(=O)[C@@H]1CCCN1C(=O)[C@H](CCCNC(=N)N)NC(=O)[C@@H]1CCC(=O)N1)C(=O)N[C@@H](CCCCN)C(=O)N[C@H](C(=O)N[C@@H](CCCNC(=N)N)C(=O)N[C@@H](Cc1ccccc1)C(N)=O)[C@@H](C)O [Aea-HP-1, pERPhPSLKTRFamide] ([pGlu]RP[Hyp]SLKTRF-NH2)
[1]
  activation of SP/MIP receptor (luminescent response): did not activate
[2]
  activation of SP/MIP receptor (luminescent response): did not activate
[3]
  persistence in the female reproductive tract after copulation: less than 2 h
[4]
  peptide remaining in the circulation: around 17%
[5]
  stimulation of contractions of isolated oviduct and hindgut: did not stimulate contractions
[6]; injected into female A. aegypti
  effect on host-seeking behavior: inhibiting host-seeking behavior
[6]; injected into non-öogenic female A. aegypti
  duration of reduction in host-seeking: up to 5 h
[7]
  induction of mating rejection: not been able to show that Aea-HP-1 can induce mating rejection
[8]
  rejection of male advances (post-mating response): did not elicit rejection of male advances
